Starred links: 1 amine or outer side, 2 acyl side, 3 side chain; linkers in the order of their positions; H or OH if unused. Positions of bridges follow the written chain, without caps; N, C: chain ends. Residues, ends and D or L forms follow the SMILES beside them. *: point of attachment. C18 diacid = O=C(O)CCCCCCCCCCCCCCCCC(=O)*; γGlu = O=C(O)[C@H](CCC(=O)[*:2])N[*:1]; AEEA = NCCOCCOCC(=O)O
Target: T1, human natriuretic peptide receptor 2 (hNPR2) (Homo sapiens, UniProt P20594)
T1 construct: expressed in transfected cells; host or cells: HEK293 (ATCC CRL-1573), clone 35, co-transfected with pGloSensor-42F
T1 sequence (P20594 23-1047): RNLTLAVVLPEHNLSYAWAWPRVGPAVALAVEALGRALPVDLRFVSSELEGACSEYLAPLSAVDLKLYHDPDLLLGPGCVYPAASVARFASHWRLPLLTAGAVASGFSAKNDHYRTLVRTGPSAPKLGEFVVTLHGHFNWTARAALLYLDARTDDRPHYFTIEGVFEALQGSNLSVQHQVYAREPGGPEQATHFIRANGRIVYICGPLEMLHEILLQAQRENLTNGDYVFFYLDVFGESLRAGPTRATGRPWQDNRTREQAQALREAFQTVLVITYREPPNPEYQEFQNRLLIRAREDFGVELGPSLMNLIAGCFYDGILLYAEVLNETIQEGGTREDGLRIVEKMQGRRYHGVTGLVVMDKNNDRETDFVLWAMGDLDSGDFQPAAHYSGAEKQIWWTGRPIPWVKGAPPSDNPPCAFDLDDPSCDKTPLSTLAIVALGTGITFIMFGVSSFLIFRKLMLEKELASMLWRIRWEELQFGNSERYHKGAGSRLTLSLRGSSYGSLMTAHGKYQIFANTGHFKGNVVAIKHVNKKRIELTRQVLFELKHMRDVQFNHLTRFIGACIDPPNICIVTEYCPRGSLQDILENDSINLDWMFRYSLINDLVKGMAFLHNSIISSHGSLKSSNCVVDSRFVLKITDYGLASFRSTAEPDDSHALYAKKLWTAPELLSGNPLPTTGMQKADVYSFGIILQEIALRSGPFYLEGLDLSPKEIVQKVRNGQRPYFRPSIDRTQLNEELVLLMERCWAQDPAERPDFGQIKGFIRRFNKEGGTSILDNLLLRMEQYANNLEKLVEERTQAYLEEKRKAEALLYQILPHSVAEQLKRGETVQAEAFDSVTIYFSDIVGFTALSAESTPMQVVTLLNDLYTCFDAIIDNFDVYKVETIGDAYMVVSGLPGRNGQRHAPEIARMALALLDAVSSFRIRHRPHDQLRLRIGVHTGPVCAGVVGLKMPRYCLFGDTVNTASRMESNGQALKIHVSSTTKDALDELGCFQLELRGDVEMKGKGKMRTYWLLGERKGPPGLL
Assay: In vitro hNPR2 activity assay (cGMP GloSensor reporter, HEK293)
Format: cell-based
Conditions: for EC50: 0% HSA, HEK293-hNPR2/GloSensor cells; for hNPR2 0% HSA. [EC50% rel CNP]: potency relative to CNP22 (0065)
Summary of the method: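 Potency is the EC50 from a four-parameter logistic fit, also expressed relative to the in-plate CNP22 control (×100), with at least two replicates. Compounds (ten concentrations, […], HSA-free diluent with 1% OVA, 0.01% Tween20) were incubated 30 min at 37 °C on HEK293 cells co-expressing hNPR2 and a GloSensor cGMP luciferase. Luminescence detected with Bright-Glo.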

Row | Compound | EC50 [nM] | hNPR2 0% HSA. [EC50% rel CNP] [%]
1 | CC[C@H](C)[C@@H]1NC(=O)[C@H](CCCNC(=N)N)NC(=O)[C@H](CC(=O)O)NC(=O)[C@H](CC(C)C)NC(=O)[C@H](CCCCN)NC(=O)[C@H](CC(C)C)NC(=O)CNC(=O)[C@H](Cc2ccccc2)NC(=O)[C@@H](NC(=O)CNC(=O)[C@H](CCCCN)NC(=O)[C@H](CO)NC(=O)[C@H](CC(C)C)NC(=O)CNC(=O)[C@H](CCCCN)NC(=O)[C@H](CCC(=O)O)NC(=O)[C@H](CCC(N)=O)NC(=O)[C@H](C)NC(=O)CNC(=O)[C@H](Cc2c[nH]cn2)NC(=O)[C@H](Cc2ccc(O)cc2)NC(=O)COCCOCCNC(=O)COCCOCCNC(=O)CC[C@H](NC(=O)CCCCCCCCCCCCCCCCC(=O)O)C(=O)O)CSSC[C@@H](C(=O)O)NC(=O)CNC(=O)[C@H](CC(C)C)NC(=O)CNC(=O)[C@H](CO)NC(=O)[C@H](CC(C)C)NC(=O)[C@H](CO)NC(=O)CNC1=O [compound 1237] ({C18 diacid-γGlu-AEEA-AEEA}-YHGAQEKGLSKGCFGLKLDRIGSLSGLGC-OH; disulfide 13-29) | 1.95 | 11.8
2 | CC[C@H](C)[C@@H]1NC(=O)[C@H](CCCNC(=N)N)NC(=O)[C@H](CC(=O)O)NC(=O)[C@H](CC(C)C)NC(=O)[C@H](CCCCN)NC(=O)[C@H](CC(C)C)NC(=O)CNC(=O)[C@H](Cc2ccccc2)NC(=O)[C@@H](NC(=O)CNC(=O)[C@H](CCCCN)NC(=O)[C@H](CO)NC(=O)[C@H](CC(C)C)NC(=O)CNC(=O)[C@H](CCCCN)NC(=O)[C@H](CCCCN)NC(=O)[C@H](CCC(N)=O)NC(=O)[C@H](C)NC(=O)CNC(=O)[C@H](CCC(=O)O)NC(=O)[C@H](Cc2ccc(O)cc2)NC(=O)COCCOCCNC(=O)COCCOCCNC(=O)CC[C@H](NC(=O)CCCCCCCCCCCCCCCCC(=O)O)C(=O)O)CSSC[C@@H](C(=O)O)NC(=O)CNC(=O)[C@H](CC(C)C)NC(=O)CNC(=O)[C@H](CO)NC(=O)[C@H](CC(C)C)NC(=O)[C@H](CO)NC(=O)CNC1=O [compound 1221] | 1.17 | 35.9
3 | CC[C@H](C)[C@@H]1NC(=O)[C@H](CCCNC(=N)N)NC(=O)[C@H](CCC(=O)O)NC(=O)[C@H](CC(C)C)NC(=O)[C@H](CCCCN)NC(=O)[C@H](CC(C)C)NC(=O)CNC(=O)[C@H](Cc2ccccc2)NC(=O)[C@@H](NC(=O)CNC(=O)[C@H](CCC(N)=O)NC(=O)[C@H](CO)NC(=O)[C@H](CC(C)C)NC(=O)CNC(=O)[C@H](Cc2c[nH]cn2)NC(=O)[C@H](Cc2c[nH]cn2)NC(=O)[C@H](CCC(N)=O)NC(=O)[C@H](C)NC(=O)CNC(=O)[C@H](CCCCN)NC(=O)[C@H](Cc2ccc(O)cc2)NC(=O)COCCOCCNC(=O)COCCOCCNC(=O)CC[C@H](NC(=O)CC[C@H](NC(=O)CCCCCCCCCCCCCCCCC(=O)O)C(=O)O)C(=O)O)CSSC[C@@H](C(=O)O)NC(=O)CNC(=O)[C@H](CC(C)C)NC(=O)CNC(=O)[C@H](CO)NC(=O)[C@H](CC(C)C)NC(=O)[C@H](CO)NC(=O)CNC1=O [compound 1324] ({C18 diacid-γGlu-γGlu-AEEA-AEEA}-YKGAQHHGLSQGCFGLKLERIGSLSGLGC-OH; disulfide 13-29) | 5.51 | 1.6
4 | CC[C@H](C)[C@@H]1NC(=O)[C@H](CCCNC(=N)N)NC(=O)[C@H](CC(=O)O)NC(=O)[C@H](CC(C)C)NC(=O)[C@@H]2CCCN2C(=O)[C@H](CC(C)C)NC(=O)CNC(=O)[C@H](Cc2ccccc2)NC(=O)[C@@H](NC(=O)CNC(=O)[C@H](CO)NC(=O)[C@H](CO)NC(=O)[C@@H](NC(=O)CNC(=O)[C@@H](NC(=O)[C@H](CCCCN)NC(=O)[C@H](CCC(N)=O)NC(=O)[C@H](C)NC(=O)CNC(=O)[C@H](Cc2c[nH]cn2)NC(=O)[C@H](CCC(=O)O)NC(=O)COCCOCCNC(=O)COCCOCCNC(=O)CC[C@H](NC(=O)CCCCCCCCCCCCCCCCC(=O)O)C(=O)O)[C@@H](C)O)C(C)C)CSSC[C@@H](C(=O)O)NC(=O)CNC(=O)[C@H](CC(C)C)NC(=O)CNC(=O)[C@H](CO)NC(=O)[C@H](CC(C)C)NC(=O)[C@H](CO)NC(=O)CNC1=O [compound 1312] ({C18 diacid-γGlu-AEEA-AEEA}-EHGAQKTGVSSGCFGLPLDRIGSLSGLGC-OH; disulfide 13-29) | – | 9.0
5 | CC[C@H](C)[C@@H]1NC(=O)[C@H](CCCNC(=N)N)NC(=O)[C@H](CC(=O)O)NC(=O)[C@H](CC(C)C)NC(=O)[C@@H]2CCCN2C(=O)[C@H](CC(C)C)NC(=O)CNC(=O)[C@H](Cc2ccccc2)NC(=O)[C@@H](NC(=O)CNC(=O)[C@H](CCC(N)=O)NC(=O)[C@H](CO)NC(=O)[C@H](CC(C)C)NC(=O)CNC(=O)[C@H](CCCCN)NC(=O)[C@H](CCCCN)NC(=O)[C@H](CCC(N)=O)NC(=O)[C@H](C)NC(=O)CNC(=O)[C@@H]2CCCN2C(=O)[C@H](C)NC(=O)[C@H](CCC(N)=O)NC(=O)CNC(=O)[C@@H]2CCCN2C(=O)[C@H](C)NC(=O)[C@H](CCC(N)=O)NC(=O)CNC(=O)[C@@H]2CCCN2C(=O)[C@H](C)NC(=O)[C@H](CCC(N)=O)NC(=O)CNC(=O)CC[C@H](NC(=O)CCCCCCCCCCCCCCCCC(=O)O)C(=O)O)CSSC[C@@H](C(=O)O)NC(=O)CNC(=O)[C@H](CC(C)C)NC(=O)CNC(=O)[C@H](CO)NC(=O)[C@H](CC(C)C)NC(=O)[C@H](CO)NC(=O)CNC1=O [compound 1488] ({C18 diacid-γGlu}-GQAPGQAPGQAPGAQKKGLSQGCFGLPLDRIGSLSGLGC-OH; disulfide 23-39) | – | 29.3
6 | CC[C@H](C)[C@@H]1NC(=O)[C@H](CCCNC(=N)N)NC(=O)[C@H](CC(=O)O)NC(=O)[C@H](CC(C)C)NC(=O)[C@@H]2CCCN2C(=O)[C@H](CC(C)C)NC(=O)CNC(=O)[C@H](Cc2ccccc2)NC(=O)[C@@H](NC(=O)CNC(=O)[C@H](CCCCN)NC(=O)[C@H](CO)NC(=O)[C@H](CC(C)C)NC(=O)CNC(=O)[C@H](CCCCN)NC(=O)[C@H](CCCCN)NC(=O)[C@H](CCC(N)=O)NC(=O)[C@H](C)NC(=O)CNC(=O)[C@H](CCC(=O)O)NC(=O)[C@H](Cc2ccc(O)cc2)NC(=O)[C@H](CCCCN)NC(=O)[C@H](CCCNC(=N)N)NC(=O)[C@H](C)NC(=O)[C@H](CCC(N)=O)NC(=O)[C@@H]2CCCN2C(=O)[C@H](Cc2c[nH]cn2)NC(=O)[C@H](CCC(=O)O)NC(=O)[C@H](CCC(N)=O)NC(=O)CC[C@H](NC(=O)CC[C@H](NC(=O)CC[C@H](NC(=O)CC[C@H](NC(=O)CCCCCCCCCCCCCCCCC(=O)O)C(=O)O)C(=O)O)C(=O)O)C(=O)O)CSSC[C@@H](C(=O)O)NC(=O)CNC(=O)[C@H](CC(C)C)NC(=O)CNC(=O)[C@H](CO)NC(=O)[C@H](CC(C)C)NC(=O)[C@H](CO)NC(=O)CNC1=O [compound 1448] ({C18 diacid-γGlu-γGlu-γGlu-γGlu}-QEHPQARKYEGAQKKGLSKGCFGLPLDRIGSLSGLGC-OH; disulfide 21-37) | – | 33.3
7 | CC[C@H](C)[C@@H]1NC(=O)[C@H](CCCNC(=N)N)NC(=O)[C@H](CC(=O)O)NC(=O)[C@H](CC(C)C)NC(=O)[C@@H]2CCCN2C(=O)[C@H](CC(C)C)NC(=O)CNC(=O)[C@H](Cc2ccccc2)NC(=O)[C@@H](NC(=O)CNC(=O)[C@H](CCC(N)=O)NC(=O)[C@H](CO)NC(=O)[C@H](CC(C)C)NC(=O)CNC(=O)[C@H](CCCCN)NC(=O)[C@H](CCCCN)NC(=O)[C@H](CCC(=O)O)NC(=O)[C@H](C)NC(=O)CNC(=O)[C@H](CCC(=O)O)NC(=O)[C@H](Cc2ccc(O)cc2)NC(=O)COCCOCCNC(=O)COCCOCCNC(=O)CC[C@H](NC(=O)CCCCCCCCCCCCCCCCC(=O)O)C(=O)O)CSSC[C@@H](C(=O)O)NC(=O)CNC(=O)[C@H](CC(C)C)NC(=O)CNC(=O)[C@H](CO)NC(=O)[C@H](CC(C)C)NC(=O)[C@H](CO)NC(=O)CNC1=O [compound 1274] ({C18 diacid-γGlu-AEEA-AEEA}-YEGAEKKGLSQGCFGLPLDRIGSLSGLGC-OH; disulfide 13-29) | – | 13.2

Reference: patent publication US20240209028A1, “CNP COMPOUNDS” (priority 2022, published 2024)
